Results reported in article PMC11811597, “Phenomics‐Based Discovery of Novel Orthosteric Choline Kinase Inhibitors” (Angewandte Chemie (International Ed. in English), 2025).

Key:
Assay in all cases: Competitive affinity-based chemoproteomics (UNC0965 matrix), MCF7 lysate
Assay type in all cases: binding
[1] = biological target: T1, EHMT1 (GLP) (Homo sapiens, UniProt Q9H9B1); settings: MCF7 lysates, 20 μM competitor
T1 construct: endogenous in cells; host or cells: MCF7 whole cell lysate
Method: (§1) A-366 and UNC0638 were purchased from Tocris. ARIAD and V-11-07-11 were purchased from Wuxi Apptec. UNC0737 and UNC0965 were synthesised as previously described.[1] […]
(§2) #35050061). Cells were maintained at 37 °C in a humidified 5% CO2 atmosphere. […]
(§3) Chemical Proteomics Drug Pulldown
(§4) For lysate generation MCF7 cells were grown until approximately 80% confluency before being pelleted and washed with PBS. Cell pellets were subsequently lysed by addition of Buffer A (50 mM Tris pH 7.5, 0. 8% v/v NP-40, 5% v/v glycerol, 1.5 mM MgCl2, 100 mM NaCl, 25 mM NaF, 1 mM Na3VO4, 1 mM PMSF, 1 mM DTT, 10 μg mL−1 TLCK, 1 μg mL−1 Leupeptin, 1 μg mL−1 Aprotinin, 1 μg mL−1 soy bean trypsin) as previously described.[2]
(§5) For each pulldown condition, UNC0965 was coupled to 100 μL of UltraLink Immobilized Streptavidin Plus bead slurry (50% in isopropanol, GE Healthcare) to generate the affinity matrix as previously […]
(§6) described.[2] Lysates were precleared with bead slurry (100 μL) for 30 min at 4 °C and then treated with UNC0638 or UNC0737 (20 μM) or DMSO control for 30 min at 4 °C followed by incubation with affinity matrix for 2 h at 4 °C. Affinity matrices were washed with buffer A (5 mL) and proteins eluted with 100 μL of 2x Laemmli sample buffer, 100 mM DTT, in PBS and heating for 10 min at 90 °C.
(§7) Eluents (70 µL) were diluted in 0.1 M Tris (pH 7.8) to 200 µL, reduced with 5 mM DTT for 30 min at RT, and alkylated with 20 mM iodoacetamide for 30 min at RT in the dark. Proteins were precipitated by sequential addition of MeOH (600 µL), CHCl3 (150 µL) and H2O (450 µL), pelleted (17,000 × g, 5 min), washed with further MeOH (2 × 600 µL), and re-pelleted. Air dried pellets were resuspended in 50 μL 6 M urea (pH 7.8) by vortexing and then diluted with 250 μL H2O before adding 1 µg trypsin for overnight incubation at 37 °C. The digests were acidified with FA (1% v/v final concentration), desalted using SOLA HRP SPE Cartridges (Thermo Fisher), eluted with 69% v/v MeCN, 0.1% v/v FA in H2O (600 μL) and dried in vacuo. Dried peptides were stored at -20 °C before resuspension in 2% v/v MeCN, 0.1% v/v FA in H2O (20 μL) for LC-MS/MS analysis.
(§8) LC-MS/MS Data Acquisition
(§9) Digested samples were analysed by nano-UPLC–MS/MS using a Dionex Ultimate 3000 nano UPLC fitted with an EASY spray column (75 μm × 500 mm, 2 μm particle size, Thermo Scientific), coupled to an Orbitrap Q Exactive instrument. A 60 min gradient of 0.1% (v/v) formic acid in 5 % (v/v) DMSO to 0.1% (v/v) formic acid with 35% (v/v) acetonitrile in 5 % (v/v) DMSO at a flow rate of 250 nL min−1 was used. The instrument was operated in a data-dependant mode, with survey scans acquired at a resolution of 70,000 at 200 m/z and the 15 most abundant precursors selected for HCD fragmentation with an AGC target of […] ions.
(§10) Raw data was processed using MaxQuant[3] version 2.0.1.0 and the reference complete human proteome FASTA file (UniProt, downloaded 05.08.21). Label Free Quantification (LFQ) and Match Between Runs were selected; Cysteine carbamidomethylation was selected as a fixed modification, and methionine oxidation and asparagine deamidation as variable modifications. Default settings for identification and quantification were used. Specifically, a minimum peptide length of 7, a maximum of 2 missed cleavage sites, and a maximum of 5 labelled amino acids per peptide were allowed.
(§11) Through selection of the ‘trypsin/P’ general setting, peptide bond cleavage at arginine or lysine (followed by any amino acid) was considered during in silico digest of the reference proteome. The allowed precursor and fragment ion mass tolerances were 4.5 ppm and 20 ppm, respectively. Peptides and proteins were identified utilizing a 0.01 false discovery rate, with “unique and razor peptides” […]
(§12) mode selected for both identification and quantification of proteins (razor peptides are uniquely assigned to protein groups and not to individual proteins). At least 1 razor + unique peptides were required for valid quantification. […]

[2] = biological target: T2, TUBD1 (Homo sapiens, UniProt Q9UJT1); settings: 20 μM competitor, n=2
T2 construct: endogenous in cells; host or cells: MCF7 whole cell lysate
Method: as §1, §2, §3, §4, §5, §6, §7, §8, §9, §10, §11, §12

[3] = biological target: T3, PRCP (Homo sapiens, UniProt P42785); settings: 20 μM competitor, n=2
T3 construct: endogenous in cells; host or cells: MCF7 whole cell lysate
Method: as §1, §2, §3, §4, §5, §6, §7, §8, §9, §10, §11, §12

T1 sequence (Q9H9B1 whole entry): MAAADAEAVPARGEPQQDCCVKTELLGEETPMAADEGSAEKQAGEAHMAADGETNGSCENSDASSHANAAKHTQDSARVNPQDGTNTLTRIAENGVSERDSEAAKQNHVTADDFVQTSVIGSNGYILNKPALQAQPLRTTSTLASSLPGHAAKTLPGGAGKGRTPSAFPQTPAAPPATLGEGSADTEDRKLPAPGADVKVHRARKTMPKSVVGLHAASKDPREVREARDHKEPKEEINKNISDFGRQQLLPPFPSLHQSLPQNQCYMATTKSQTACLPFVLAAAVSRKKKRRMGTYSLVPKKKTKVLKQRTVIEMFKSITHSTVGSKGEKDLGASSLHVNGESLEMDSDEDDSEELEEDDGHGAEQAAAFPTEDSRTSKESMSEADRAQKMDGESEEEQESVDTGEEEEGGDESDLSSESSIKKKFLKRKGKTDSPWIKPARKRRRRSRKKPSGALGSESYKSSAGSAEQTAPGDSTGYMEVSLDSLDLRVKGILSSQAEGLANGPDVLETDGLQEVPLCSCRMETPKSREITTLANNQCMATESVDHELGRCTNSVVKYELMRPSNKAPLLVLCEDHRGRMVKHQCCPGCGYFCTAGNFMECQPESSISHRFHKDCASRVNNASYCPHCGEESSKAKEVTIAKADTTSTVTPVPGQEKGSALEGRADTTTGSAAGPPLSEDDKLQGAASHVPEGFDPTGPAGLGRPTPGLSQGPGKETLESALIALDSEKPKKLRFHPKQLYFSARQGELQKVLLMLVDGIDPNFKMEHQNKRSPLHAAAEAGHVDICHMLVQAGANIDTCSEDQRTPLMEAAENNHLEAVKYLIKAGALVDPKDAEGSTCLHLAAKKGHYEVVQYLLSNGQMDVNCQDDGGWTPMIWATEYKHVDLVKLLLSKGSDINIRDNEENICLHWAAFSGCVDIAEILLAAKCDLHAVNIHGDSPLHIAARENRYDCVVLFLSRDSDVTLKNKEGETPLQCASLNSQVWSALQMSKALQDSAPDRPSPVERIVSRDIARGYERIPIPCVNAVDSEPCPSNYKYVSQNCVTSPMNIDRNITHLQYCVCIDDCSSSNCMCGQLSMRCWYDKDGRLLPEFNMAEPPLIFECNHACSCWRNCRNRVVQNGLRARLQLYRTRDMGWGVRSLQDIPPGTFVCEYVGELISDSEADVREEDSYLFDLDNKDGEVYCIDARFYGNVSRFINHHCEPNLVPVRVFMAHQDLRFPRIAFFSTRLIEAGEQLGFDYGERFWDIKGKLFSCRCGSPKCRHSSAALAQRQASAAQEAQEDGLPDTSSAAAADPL
T2 sequence (Q9UJT1 whole entry): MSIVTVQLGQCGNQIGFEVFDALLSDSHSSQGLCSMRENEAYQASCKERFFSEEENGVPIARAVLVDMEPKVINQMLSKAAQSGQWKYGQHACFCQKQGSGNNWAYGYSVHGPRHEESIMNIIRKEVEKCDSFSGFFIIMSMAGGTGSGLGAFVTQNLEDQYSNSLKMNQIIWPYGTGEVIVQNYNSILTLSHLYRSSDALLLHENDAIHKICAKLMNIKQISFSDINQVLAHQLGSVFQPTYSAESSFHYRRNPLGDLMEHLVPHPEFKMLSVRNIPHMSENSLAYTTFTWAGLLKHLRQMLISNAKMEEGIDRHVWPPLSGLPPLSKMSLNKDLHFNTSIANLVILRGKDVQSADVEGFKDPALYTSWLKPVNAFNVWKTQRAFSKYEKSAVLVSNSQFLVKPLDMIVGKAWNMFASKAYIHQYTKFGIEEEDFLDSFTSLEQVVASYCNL
T3 sequence (P42785 46-496): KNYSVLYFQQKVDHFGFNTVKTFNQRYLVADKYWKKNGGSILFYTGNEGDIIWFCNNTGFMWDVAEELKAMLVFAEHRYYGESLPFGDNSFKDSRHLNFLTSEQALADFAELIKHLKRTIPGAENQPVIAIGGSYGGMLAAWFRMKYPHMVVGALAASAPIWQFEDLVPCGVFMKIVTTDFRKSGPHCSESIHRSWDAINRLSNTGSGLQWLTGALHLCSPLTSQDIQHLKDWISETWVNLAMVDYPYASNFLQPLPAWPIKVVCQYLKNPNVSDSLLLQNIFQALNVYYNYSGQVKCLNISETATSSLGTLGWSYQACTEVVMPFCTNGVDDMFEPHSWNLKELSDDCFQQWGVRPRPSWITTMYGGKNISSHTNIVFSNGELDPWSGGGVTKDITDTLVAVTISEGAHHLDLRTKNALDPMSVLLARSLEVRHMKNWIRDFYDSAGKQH

SMILES | competition for EHMT1 (GLP) binding to affinity matrix [1] | FC vs DMSO (log2 competition), TUBD1 [2] | FC vs DMSO (log2 competition), PRCP [3]
COc1cc2c(NC3CCN(C(C)C)CC3)nc(C3CCCCC3)nc2cc1OCCCN1CCCC1 [UNC0638] | strong enrichment and competition | -2.877 | -2.542
COc1cc2c(N(C)C3CCN(C(C)C)CC3)nc(C3CCCCC3)nc2cc1OCCCN1CCCC1 [UNC0737] | did not ablate binding | -0.7809 | 0.1604
